The record followed here is PubChem BioAssay (NCI).

Each structure is given as a SMILES string. Values joined by “and” are separate entries in the source; they are usually repeats but may differ in a detail not shown here. Equal entries are not always repeated.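 48-hour exposure; five concentrations; linearly interpolated endpoints. Abbreviation: GI50, concentration required for 50% inhibition of growth. TGI: concentration producing complete growth inhibition.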 Some results are limits rather than exact numbers.

Some test systems named below: A549 NSCLC; UACC-257 melanoma; IGROV1 ovarian; EKVX NSCLC; CCRF-CEM leukemia; SK-MEL-5 melanoma; HCT-116 colon; OVCAR-8 ovarian; LOX IMVI melanoma; SN12C renal.
Common to all, as to test: NCI anticancer screen, dose series, 48 h

Turning to `Cc1ccc2c(c1)sc(-c1ccc(N(C)C)cc1)[n+]2C`, the GI50 was 0.741 µM in the assay with A549 NSCLC; 0.657 µM in the assay on UACC-257 melanoma; 3.77 µM with IGROV1 ovarian; 0.379 µM in the assay with EKVX NSCLC; 1.98 µM in the assay with CCRF-CEM leukemia; 0.39 µM with SK-MEL-5 melanoma. Besides, the GI50 in the assay on HCT-116 colon is 0.502 µM; in the assay with OVCAR-8 ovarian it was 1.41 µM; with LOX IMVI melanoma it was 1.28 µM; with SN12C renal, 2.71 µM. Further, the TGI with UACC-257 melanoma is 19.9 µM; in the assay on IGROV1 ovarian it was > 100 µM; with EKVX NSCLC it was > 100 µM; in the assay with CCRF-CEM leukemia it was > 62.5 µM; in the assay with SK-MEL-5 melanoma, 1.8 µM; with HCT-116 colon it was > 34.6 µM. In addition, the results for the TGI in the assay on OVCAR-8 ovarian, with LOX IMVI melanoma and in the assay with SN12C renal were 34.8 µM, 21.8 µM and 42.8 µM, respectively.

In the case of `Cn1cnc([N+](=O)[O-])c1Sc1ncnc2nc[nH]c12`, the GI50 in the assay on A549 NSCLC was 40 µM and > 67.3 µM; in the assay on UACC-257 melanoma, 7.86 µM and 8.71 µM; in the assay on IGROV1 ovarian, 9.13 µM and 12.1 µM; in the assay on EKVX NSCLC, 28.3 µM and > 100 µM; in the assay on CCRF-CEM leukemia, 3.64 µM and 5.1 µM; in the assay with SK-MEL-5 melanoma, 12.1 µM and 14.4 µM. The GI50 in the assay on HCT-116 colon is 3.62 µM and 23.4 µM; in the assay on OVCAR-8 ovarian, 3.68 µM and > 26.6 µM; with LOX IMVI melanoma, 1.11 µM and 1.63 µM; in the assay on SN12C renal it was 20.5 µM and 36.4 µM. Also, the TGI in the assay with A549 NSCLC, in the assay on UACC-257 melanoma, in the assay with IGROV1 ovarian, with EKVX NSCLC, in the assay with CCRF-CEM leukemia and in the assay on SK-MEL-5 melanoma was > 100 µM in each case. Besides, the TGI with HCT-116 colon, in the assay on OVCAR-8 ovarian, in the assay on LOX IMVI melanoma and with SN12C renal was > 100 µM in each case.

`O=[N+]([O-])/C=C\c1ccc2c(c1)OCO2`: the GI50 in the assay on A549 NSCLC was 2.34 µM; in the assay on UACC-257 melanoma it was 1.64 µM; in the assay with IGROV1 ovarian, 1.98 µM; in the assay on EKVX NSCLC it was 14.4 µM; in the assay with CCRF-CEM leukemia, 3.9 µM; with SK-MEL-5 melanoma, 3.68 µM. Further, the GI50 in the assay with HCT-116 colon was 1.42 µM; with OVCAR-8 ovarian it was 2.86 µM; in the assay on LOX IMVI melanoma, 1.83 µM; with SN12C renal, 11.4 µM. Besides, the TGI in the assay with A549 NSCLC was 5.23 µM; in the assay on UACC-257 melanoma, 3.77 µM; in the assay on IGROV1 ovarian, 4.67 µM; in the assay with EKVX NSCLC it was 34.9 µM; with CCRF-CEM leukemia, 25 µM; in the assay with SK-MEL-5 melanoma, 13.9 µM. Besides, the TGI in the assay on HCT-116 colon was 2.95 µM; in the assay with OVCAR-8 ovarian, 10.4 µM; with LOX IMVI melanoma, 4.15 µM; with SN12C renal, 30.3 µM.

As to `O=C(O)c1[nH]c(C(=O)O)c(CC(F)(F)C(F)(F)C(F)(F)F)c1CC(F)(F)C(F)(F)C(F)(F)F`, the TGI with A549 NSCLC, with UACC-257 melanoma, in the assay on IGROV1 ovarian, in the assay with EKVX NSCLC, in the assay with CCRF-CEM leukemia and in the assay on SK-MEL-5 melanoma was > 100 µM throughout. Further, the TGI in the assay on HCT-116 colon, in the assay on OVCAR-8 ovarian, in the assay with LOX IMVI melanoma and with SN12C renal was > 100 µM each time.

As for `Cc1ccc(S(=O)(=O)NCCN2c3nc4ccccc4cc3Sc3cc4ccccc4nc32)cc1`, the GI50 in the assay on A549 NSCLC was > 100 µM; in the assay with UACC-257 melanoma, > 100 µM; in the assay on IGROV1 ovarian it was 7.06 µM; in the assay with EKVX NSCLC, > 77 µM; with CCRF-CEM leukemia, > 100 µM; in the assay on SK-MEL-5 melanoma it was 5.59 µM. The GI50 with HCT-116 colon is 7.11 µM; with OVCAR-8 ovarian, 6.01 µM; in the assay with LOX IMVI melanoma, > 81.7 µM; in the assay on SN12C renal, > 100 µM. Besides, the TGI with A549 NSCLC, in the assay on UACC-257 melanoma, with IGROV1 ovarian, in the assay with EKVX NSCLC, in the assay on CCRF-CEM leukemia and in the assay on SK-MEL-5 melanoma was > 100 µM throughout. Further, the TGI with HCT-116 colon, with OVCAR-8 ovarian, in the assay on LOX IMVI melanoma and in the assay with SN12C renal was > 100 µM throughout.

Turning to `CC(C)(C)C([O-])=C1C(=O)c2ccccc2C1=O.CC(C)(C)C([O-])=C1C(=O)c2ccccc2C1=O.CC[O-].CC[O-].[Ti+4]`, the GI50 in the assay on A549 NSCLC is 36.2 µM; in the assay on UACC-257 melanoma it was 30.4 µM; with IGROV1 ovarian, 70.4 µM; with EKVX NSCLC it was 21.7 µM; with CCRF-CEM leukemia it was 38.8 µM; with SK-MEL-5 melanoma, 42.2 µM. In addition, the GI50 with HCT-116 colon was 37.7 µM; in the assay on OVCAR-8 ovarian it was 29.3 µM; in the assay on LOX IMVI melanoma it was 40.4 µM; in the assay on SN12C renal, 37.7 µM. Further, the TGI was > 100 µM in the assay with A549 NSCLC; 96.9 µM with UACC-257 melanoma; > 100 µM with IGROV1 ovarian; 63.9 µM in the assay with EKVX NSCLC; > 100 µM with CCRF-CEM leukemia; 95.6 µM in the assay with SK-MEL-5 melanoma. The TGI in the assay on HCT-116 colon is > 100 µM; in the assay with OVCAR-8 ovarian, 90.1 µM; in the assay on LOX IMVI melanoma it was > 100 µM; in the assay with SN12C renal, > 100 µM.
